Experimental data as given in patent US8008355B2, “Endosomolytic poly(vinyl ether) polymers” (Roche Madison Inc., priority 2002, dated 2011).

How the values were obtained:
[1] = amines with electron withdrawing groups; cited from earlier work
[2] = Rate of cleavage of linkages; assay type: physicochemical

Row | SMILES | pKa [1] | rate of cleavage, slower than an SMTP linkage (Compound XI) [2] [×]
1 | CCN(CC)CCC#N [(C2H5)2N(CH2)2CN] | 7.65 | 
2 | CCN(CCC#N)CCC#N [C2H5N(CH2CH2CN)2] | 4.55 | 
3 | CC1CCC(=N)S1 (stereo not shown) [Linkage X, 5-methyl-2-iminothiolane] |  | 4
4 | N#CCN [Polymer H2NCH2CN, H2NCH2CN] | 5.34 | 
